# Earlier results, collected in US20080261937A1, “PHARMACEUTICAL COMPOSITIONS AND METHOD FOR TREATING PEDIATRIC HYPOGONADISM” (priority 2007, published 2008).
compound,measurement,setting,value
C[C@]12CC[C@H]3[C@@H](CCC4=CC(=O)CC[C@@]43C)[C@@H]1CC[C@@H]2O [testosterone],bound to proteins in the blood,circulating testosterone,98%
same,share bound weakly to albumin,in males,60%
same,share of binding to sex hormone binding globulin (SHBG),in males,approximately 40%
